Reference: ChEMBL document CHEMBL1201862, “PubChem BioAssay data set” (2004)
The source made the active and inactive calls.

How the values were obtained:
[1] = molecular target: Nuclear receptor subfamily 5 group A member 2 (Homo sapiens, UniProt O00482); format: functional, cell-based;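 note: HEK293T cells transfected with LRH-1 and a StAR promoter luciferase reporter; potency for inhibitors that lower LRH-1 driven reporter light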
[2] = StAR promoter reporter inhibition counter-screen, dose response, counter-screen for LRH-1 inverse agonist project, cell-based, luminescence, luciferase reporter (AID 651969); format: functional
Steroidogenic factor 1 = Steroidogenic factor 1 (Homo sapiens, UniProt Q13285); experiment: Counterscreen for inverse agonists of the liver receptor homolog-1 (LRH-1; NR5A2): Luminescence-based cell-based high throughput dose response assay to identify inverse agonists of the Steroidogenic Factor 1 Nuclear Receptor (SF1; NR5A1).; format: functional
Sequence of Steroidogenic factor 1 (Q13285 whole entry): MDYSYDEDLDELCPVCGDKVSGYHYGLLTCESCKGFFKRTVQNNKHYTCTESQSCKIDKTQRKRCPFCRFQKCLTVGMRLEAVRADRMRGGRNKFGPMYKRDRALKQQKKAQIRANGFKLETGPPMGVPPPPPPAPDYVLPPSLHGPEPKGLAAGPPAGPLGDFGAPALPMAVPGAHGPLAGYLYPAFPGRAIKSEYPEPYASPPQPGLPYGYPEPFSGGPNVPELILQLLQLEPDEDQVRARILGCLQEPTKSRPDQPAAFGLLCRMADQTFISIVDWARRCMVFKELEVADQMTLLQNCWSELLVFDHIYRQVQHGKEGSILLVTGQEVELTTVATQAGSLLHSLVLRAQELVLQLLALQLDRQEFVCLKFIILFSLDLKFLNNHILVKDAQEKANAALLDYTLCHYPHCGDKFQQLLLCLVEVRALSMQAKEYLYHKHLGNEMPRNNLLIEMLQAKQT

cells = format: functional
[3] = molecular target: Fructose-bisphosphate aldolase (Mycobacterium tuberculosis, UniProt P9WQA3); experiment: Fluorescence-based biochemical high throughput dose response assay for inhibitors of the fructose-bisphosphate aldolase (FBA) of M. tuberculosis.; format: functional
Sequence of Fructose-bisphosphate aldolase (P9WQA3 whole entry, the tested form may be a part): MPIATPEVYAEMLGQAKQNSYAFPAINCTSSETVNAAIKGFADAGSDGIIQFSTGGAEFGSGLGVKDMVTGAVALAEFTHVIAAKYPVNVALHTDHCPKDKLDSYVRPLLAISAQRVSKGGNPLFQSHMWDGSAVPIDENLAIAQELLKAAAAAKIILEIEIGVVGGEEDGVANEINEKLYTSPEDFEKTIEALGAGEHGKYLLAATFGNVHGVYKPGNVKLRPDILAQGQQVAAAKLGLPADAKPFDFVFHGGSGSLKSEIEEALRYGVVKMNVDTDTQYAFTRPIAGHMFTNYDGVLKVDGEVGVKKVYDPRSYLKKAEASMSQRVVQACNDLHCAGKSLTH

[4] = molecular target: T1, Disintegrin and metalloproteinase domain-containing protein 17 (Homo sapiens, UniProt P78536); experiment: exosite inhibitors of ADAM17, dose response, biochemical (AID 743260)
T1 sequence (P78536 whole entry, the tested form may be a part): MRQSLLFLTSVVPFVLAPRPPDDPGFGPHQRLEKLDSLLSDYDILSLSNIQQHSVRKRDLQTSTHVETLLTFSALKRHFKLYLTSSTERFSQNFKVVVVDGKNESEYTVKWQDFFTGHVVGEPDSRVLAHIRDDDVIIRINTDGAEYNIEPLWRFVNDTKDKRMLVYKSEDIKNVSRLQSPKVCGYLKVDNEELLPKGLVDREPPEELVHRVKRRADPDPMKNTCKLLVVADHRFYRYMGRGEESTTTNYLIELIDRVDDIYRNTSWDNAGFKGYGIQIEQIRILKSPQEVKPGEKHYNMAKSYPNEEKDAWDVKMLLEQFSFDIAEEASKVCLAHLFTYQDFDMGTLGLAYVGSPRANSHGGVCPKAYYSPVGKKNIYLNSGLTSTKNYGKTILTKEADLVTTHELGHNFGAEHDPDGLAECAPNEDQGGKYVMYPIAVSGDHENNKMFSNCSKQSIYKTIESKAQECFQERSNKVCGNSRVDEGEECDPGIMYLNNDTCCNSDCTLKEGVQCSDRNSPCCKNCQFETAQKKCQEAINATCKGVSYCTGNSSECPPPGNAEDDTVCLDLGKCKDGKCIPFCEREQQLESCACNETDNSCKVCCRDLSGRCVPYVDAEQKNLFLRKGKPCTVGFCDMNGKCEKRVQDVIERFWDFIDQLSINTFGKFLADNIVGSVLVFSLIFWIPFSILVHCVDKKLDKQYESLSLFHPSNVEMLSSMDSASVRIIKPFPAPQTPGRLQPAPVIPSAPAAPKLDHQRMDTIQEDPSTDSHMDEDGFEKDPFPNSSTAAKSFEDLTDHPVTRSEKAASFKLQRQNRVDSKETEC

[5] = ADAM10 protease inhibitors, dose response, selectivity assay for ADAM17 exosite inhibitor project, biochemical, FRET peptide substrate, recombinant human ADAM10 (AID 743259);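 note: ADAM10 enzyme cleaving a FRET peptide substrate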
[6] = molecular target: T2, Probable nicotinate-nucleotide adenylyltransferase (Staphylococcus aureus (strain N315), UniProt P65502); format: functional, Staphylococcus aureus subsp. aureus N315;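 for IC50 Mean: confirmatory dose-response retesting of NadD inhibitor hits first found in an ultra-high-throughput screen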
T2 sequence (P65502 whole entry): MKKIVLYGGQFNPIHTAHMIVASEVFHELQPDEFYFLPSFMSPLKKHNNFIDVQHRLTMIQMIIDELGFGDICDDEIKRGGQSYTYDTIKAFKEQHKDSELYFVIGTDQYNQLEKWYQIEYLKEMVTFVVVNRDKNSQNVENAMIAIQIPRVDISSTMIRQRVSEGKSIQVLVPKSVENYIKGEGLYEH

[7] = molecular target: DNA damage-inducible transcript 3 protein (Mus musculus, UniProt P35639); format: functional, Cricetulus griseus
Sequence of DNA damage-inducible transcript 3 protein (P35639 whole entry): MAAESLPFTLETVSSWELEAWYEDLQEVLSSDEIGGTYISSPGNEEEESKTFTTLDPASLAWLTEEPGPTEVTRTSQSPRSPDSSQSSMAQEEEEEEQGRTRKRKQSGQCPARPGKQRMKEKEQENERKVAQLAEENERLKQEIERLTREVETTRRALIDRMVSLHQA

[8] = molecular target: T3, Latent membrane protein 1 (Human herpesvirus 4 (strain B95-8), UniProt P03230); experiment: TES1-eGFP NF-kB reporter inhibition versus Tet-On dsRED, dose response, selectivity assay for LMP1 NF-kB inhibitor project, imaging, HEK293T, dual-color eGFP/dsRED, cherry-picks (AID 588398); format: functional, cell-based
T3 sequence (P03230 whole entry): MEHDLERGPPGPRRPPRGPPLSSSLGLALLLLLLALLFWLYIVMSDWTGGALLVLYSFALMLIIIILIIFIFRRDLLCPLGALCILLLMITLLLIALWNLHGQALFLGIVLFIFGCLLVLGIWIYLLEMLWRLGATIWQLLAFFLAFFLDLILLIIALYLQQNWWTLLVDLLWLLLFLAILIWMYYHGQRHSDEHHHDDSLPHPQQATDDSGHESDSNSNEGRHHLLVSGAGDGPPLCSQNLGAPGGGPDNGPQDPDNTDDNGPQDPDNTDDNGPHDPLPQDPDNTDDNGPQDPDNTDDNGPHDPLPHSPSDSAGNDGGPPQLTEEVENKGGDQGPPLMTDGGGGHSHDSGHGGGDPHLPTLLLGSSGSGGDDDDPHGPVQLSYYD

[9] = molecular target: T2, Probable nicotinate-nucleotide adenylyltransferase; format: functional, Staphylococcus aureus subsp. aureus N315; details: read-out: IC50_Mean
[10] = ADAM10 inhibitors, peptide cleavage, dose response, biochemical, QFRET (AID 743254);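 note: ADAM10 enzyme with the DM2 quenched FRET peptide as substrate; EDANS fluorescence gain as the protease cuts the substrate; inhibitor potency against ADAM10 proteolytic activity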
[11] = molecular target: T1, Disintegrin and metalloproteinase domain-containing protein 17; experiment: ADAM17 protease inhibitors, dose response, counter-screen for ADAM10 exosite inhibitor project, biochemical, quenched FRET substrate (AID 743253)
[12] = molecular target: T4, Sentrin-specific protease 1 (Homo sapiens, UniProt Q9P0U3); experiment: potency of human SENP1 inhibitors, dose response, biochemical, kinetic FRET (AID 651697); format: functional; details: read-out: IC50_Mean
T4 sequence (Q9P0U3 whole entry): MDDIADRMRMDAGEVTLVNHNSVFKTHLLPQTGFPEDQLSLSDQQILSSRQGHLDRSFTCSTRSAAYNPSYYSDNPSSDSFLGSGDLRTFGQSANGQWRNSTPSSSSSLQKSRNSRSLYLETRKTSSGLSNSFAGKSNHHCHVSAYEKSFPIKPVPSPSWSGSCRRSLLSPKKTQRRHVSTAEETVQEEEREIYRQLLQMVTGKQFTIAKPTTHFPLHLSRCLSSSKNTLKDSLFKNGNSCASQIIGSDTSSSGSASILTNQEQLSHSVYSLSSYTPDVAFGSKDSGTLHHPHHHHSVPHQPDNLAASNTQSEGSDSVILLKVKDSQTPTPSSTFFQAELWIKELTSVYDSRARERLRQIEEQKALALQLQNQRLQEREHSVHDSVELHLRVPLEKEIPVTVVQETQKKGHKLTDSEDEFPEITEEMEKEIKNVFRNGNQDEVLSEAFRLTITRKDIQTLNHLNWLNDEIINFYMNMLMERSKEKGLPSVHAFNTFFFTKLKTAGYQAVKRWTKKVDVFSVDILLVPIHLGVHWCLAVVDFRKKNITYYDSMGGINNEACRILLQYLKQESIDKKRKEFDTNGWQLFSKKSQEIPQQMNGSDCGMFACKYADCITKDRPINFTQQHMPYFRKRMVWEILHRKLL

[13] = molecular target: T4, Sentrin-specific protease 1; experiment: Dose response confirmation of small molecule inhibitors of the catalytic domain of the SUMO protease, SENP1 in a FRET assay.; format: functional; details: read-out: IC50_Mean
[14] = molecular target: T5, Corticotropin-releasing factor receptor 2/Corticotropin-releasing factor-binding protein (Homo sapiens, UniProt P24387+Q13324); experiment: activators of CRF receptor 2 with binding protein – uHTS hits, confirmation (AID 602473); format: functional; details: read-out: EC50_Mean
T5 sequence (Q13324 whole entry): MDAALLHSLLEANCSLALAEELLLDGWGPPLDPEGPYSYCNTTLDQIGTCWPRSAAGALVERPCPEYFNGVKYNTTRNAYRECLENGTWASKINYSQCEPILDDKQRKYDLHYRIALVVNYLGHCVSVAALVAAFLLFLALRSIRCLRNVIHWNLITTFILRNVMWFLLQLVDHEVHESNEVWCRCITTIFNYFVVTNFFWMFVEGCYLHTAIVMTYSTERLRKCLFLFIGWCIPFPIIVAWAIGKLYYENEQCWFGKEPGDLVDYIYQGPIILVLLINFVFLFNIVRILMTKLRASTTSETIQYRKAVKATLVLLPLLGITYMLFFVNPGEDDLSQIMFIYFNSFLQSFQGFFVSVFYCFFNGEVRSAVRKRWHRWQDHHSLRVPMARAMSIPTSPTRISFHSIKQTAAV
T5 sequence (P24387 whole entry): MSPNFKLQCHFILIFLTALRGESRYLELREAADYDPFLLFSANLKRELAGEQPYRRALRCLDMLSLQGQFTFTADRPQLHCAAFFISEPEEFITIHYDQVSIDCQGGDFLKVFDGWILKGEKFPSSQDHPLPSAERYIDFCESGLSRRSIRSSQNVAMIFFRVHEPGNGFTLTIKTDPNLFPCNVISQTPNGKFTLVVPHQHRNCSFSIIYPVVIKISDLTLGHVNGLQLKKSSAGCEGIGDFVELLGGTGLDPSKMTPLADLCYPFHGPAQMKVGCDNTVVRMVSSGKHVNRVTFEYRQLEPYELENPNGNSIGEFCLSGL

[15] = molecular target: T5, Corticotropin-releasing factor receptor 2/Corticotropin-releasing factor-binding protein; experiment: Dose Response confirmation of uHTS hits for small molecule antagonists of the CRF-binding protein and CRF-R2 receptor complex.; format: functional; details: read-out: IC50_Mean
HeLa = experiment: HeLa cell cytotoxicity, dose response, cytotoxicity control, ATP luminescence, cherry-pick samples (AID 687004); format: functional, cell-based; details: Homo sapiens
[16] = inhibitors of HIV Env-driven cell fusion, dose response, cherry-pick (AID 652057); format: functional, cell-based
[17] = CEM21 lymphoblast cell cytotoxicity, dose response, cytotoxicity control for viral fusion inhibitor project, CellTiter-Glo luminescence, cherry-picked (AID 652042); format: functional, cell-based;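 note: potency for signal decrease meaning cytotoxicity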
[18] = ZM109 Env clade C HIV-1 fusion inhibitors, dose response, HeLa effector, CEM target cells, luciferase, cherry-pick (AID 652058); format: functional, cell-based
[19] = HeLa cell cytotoxicity, dose response, cytotoxicity control for MgcRacGAP inhibitor project (AID 624300); format: functional
[20] = off-target signal loss in HeLa-CEM21 co-culture – HeLa F-luc CTL cells, cherry-picked, counter-screen for HIV-1 Env fusion inhibitor project, dose response (AID 652040); format: functional, cell-based;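 note: potency for signal decrease marking cytotoxic or nonspecific inhibition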
[21] = inhibitors of clade B AD8 Env fusion, dose response, cell-based, cherry-pick (AID 652062); format: functional;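 note: luciferase signal from cell-cell fusion driven by HIV-1 clade B AD8 Env; potency is for inhibitors of fusion seen as a drop in luminescence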
[22] = molecular target: T6, Methionyl-tRNA synthetase, putative (Trypanosoma brucei brucei, UniProt Q38C91); format: functional, Trypanosoma brucei brucei strain 927/4 GUTat10.1;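 note: Read-out by fluorescence polarization, run as a confirmatory high-throughput counterscreen; potency of MetRS inhibitors measured by reduced AMP formation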
T6 sequence (Q38C91 whole entry): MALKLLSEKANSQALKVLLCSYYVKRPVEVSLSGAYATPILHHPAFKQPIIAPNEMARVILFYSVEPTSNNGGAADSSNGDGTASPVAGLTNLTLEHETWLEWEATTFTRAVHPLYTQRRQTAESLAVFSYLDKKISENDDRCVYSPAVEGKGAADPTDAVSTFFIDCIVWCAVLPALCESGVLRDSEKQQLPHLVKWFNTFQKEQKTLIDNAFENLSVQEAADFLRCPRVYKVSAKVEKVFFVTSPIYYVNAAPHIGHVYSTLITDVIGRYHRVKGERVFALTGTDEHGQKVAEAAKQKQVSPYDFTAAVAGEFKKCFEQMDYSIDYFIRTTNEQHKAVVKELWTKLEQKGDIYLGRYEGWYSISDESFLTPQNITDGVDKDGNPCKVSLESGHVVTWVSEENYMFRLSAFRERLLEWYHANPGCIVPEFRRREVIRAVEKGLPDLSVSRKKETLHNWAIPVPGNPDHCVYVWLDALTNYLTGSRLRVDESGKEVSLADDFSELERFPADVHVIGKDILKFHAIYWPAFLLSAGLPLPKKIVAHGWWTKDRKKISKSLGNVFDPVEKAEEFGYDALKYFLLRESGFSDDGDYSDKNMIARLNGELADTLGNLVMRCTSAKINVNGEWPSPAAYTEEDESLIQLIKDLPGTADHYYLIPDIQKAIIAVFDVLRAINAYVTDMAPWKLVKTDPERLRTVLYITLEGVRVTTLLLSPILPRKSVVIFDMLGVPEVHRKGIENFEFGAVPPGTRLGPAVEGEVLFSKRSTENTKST

[23] = Counterscreen for inhibitors of Trypanosoma brucei methionyl tRNA synthetase (MetRS): Luminescence-based cell-based high throughput dose response assay to identify compounds that are cytotoxic to Jurkat human T lymphocyte cells.; format: functional
Albumin = Albumin (Bos taurus, UniProt P02769); experiment: Counterscreen for inhibitors of T-cell receptor (TCR)-CD3 interaction: Fluorescence-based biochemical high throughput dose response assay to identify inhibitors of T-cell receptor (TCR)-CD3 interaction using a TAMRA-labeled BSA probe.; format: functional
Sequence of Albumin (P02769 whole entry): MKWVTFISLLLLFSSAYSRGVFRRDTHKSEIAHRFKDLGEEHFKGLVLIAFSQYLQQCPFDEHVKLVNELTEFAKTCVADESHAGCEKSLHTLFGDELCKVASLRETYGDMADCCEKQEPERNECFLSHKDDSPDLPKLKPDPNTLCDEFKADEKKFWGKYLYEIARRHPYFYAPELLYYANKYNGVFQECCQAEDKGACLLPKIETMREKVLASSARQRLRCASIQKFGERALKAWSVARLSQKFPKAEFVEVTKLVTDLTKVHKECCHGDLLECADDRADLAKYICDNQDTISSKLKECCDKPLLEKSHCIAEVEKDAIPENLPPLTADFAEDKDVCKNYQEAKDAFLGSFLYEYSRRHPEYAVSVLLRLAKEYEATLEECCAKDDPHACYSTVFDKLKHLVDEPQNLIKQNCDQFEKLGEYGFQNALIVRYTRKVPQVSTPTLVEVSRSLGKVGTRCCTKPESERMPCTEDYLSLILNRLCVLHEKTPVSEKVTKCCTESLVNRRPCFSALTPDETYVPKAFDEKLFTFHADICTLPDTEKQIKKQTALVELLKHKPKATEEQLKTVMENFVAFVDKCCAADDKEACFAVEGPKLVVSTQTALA

Sequence of Nuclear receptor subfamily 5 group A member 2 (O00482 whole entry): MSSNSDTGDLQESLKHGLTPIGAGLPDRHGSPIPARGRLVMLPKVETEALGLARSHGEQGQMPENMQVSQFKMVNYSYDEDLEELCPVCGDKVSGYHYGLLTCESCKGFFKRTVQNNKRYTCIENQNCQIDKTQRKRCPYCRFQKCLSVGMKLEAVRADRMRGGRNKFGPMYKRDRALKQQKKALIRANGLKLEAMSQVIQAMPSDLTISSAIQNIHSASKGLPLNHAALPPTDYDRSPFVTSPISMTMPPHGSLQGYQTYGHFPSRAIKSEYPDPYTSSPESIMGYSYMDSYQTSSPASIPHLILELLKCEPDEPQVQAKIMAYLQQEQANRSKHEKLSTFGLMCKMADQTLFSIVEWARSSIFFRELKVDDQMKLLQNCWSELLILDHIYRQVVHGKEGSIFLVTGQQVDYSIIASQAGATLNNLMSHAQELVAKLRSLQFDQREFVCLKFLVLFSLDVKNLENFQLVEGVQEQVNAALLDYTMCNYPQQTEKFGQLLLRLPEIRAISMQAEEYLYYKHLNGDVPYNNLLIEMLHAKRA

Cc1ccc(NC(=O)COC(=O)C(NS(=O)(=O)c2ccc(Cl)cc2)C(C)O)cc1C (stereo not given)
IC50 [1]: 12 µM (inactive)
IC50 [2]: 35.9 µM (inactive)
IC50 (Steroidogenic factor 1): 2.17 µM (active)
IC50 (cells): 6.57 µM (active)

N#CC1=C(C2CC2)CC(c2ccccc2)C(C#N)=C1N (stereo not given)
IC50 [3]: > 10 µM (inactive)

COc1ccccc1NC(=O)c1c(Nc2ccccc2C)sc(C(=O)Nc2cccc(Cl)c2)c1N
IC50 [4]: > 69.5 µM (inactive)
IC50 [5]: > 69.5 µM (inactive)
IC50 [6]: 26 µM (active)
Absolute IC50 (CHOP) [7]: 10 µM
AC50 [8]: 21.3 µM (active)
IC50 [9]: 80 µM (inactive)
IC50 [10]: > 7.73 µM (active)
IC50 [11]: > 69.5 µM (inactive)

CC1=C(C(N)=O)S(=O)(=O)c2ccccc21
IC50 [12]: 19.6 µM (active)
IC50 [13]: 23 µM (inactive)

COc1ccc(/C=N/N2C(=O)CSC2=S)cc1Br
IC50 [12]: 19.3 µM (active)
IC50 [13]: 9.69 µM (active)

COc1cc(C(O)c2nc(-c3ccc4ccccc4c3)cs2)ccc1F (stereo not given)
IC50 [10]: 10.4 µM (inactive)
IC50 [11]: > 69.5 µM (inactive)

CCCC(C(=O)Nc1ccc2c(C)cc(=O)oc2c1)c1ccccc1 (stereo not given)
IC50 [3]: 1.23 µM (active)

COC(=O)C1=C(C)N(Cc2ccccc2)C(=S)N[C@H]1c1cccc(F)c1
EC50 [14]: > 53 µM (inactive)
IC50 [15]: > 47.1 µM (inactive)
AC50 (HeLa): > 52 µM (inactive)

CCc1ccc(CNCCc2c[nH]c3ccccc23)cc1
AC50 [16]: 4.4 µM (active)
AC50 [17]: 31.7 µM (active)
AC50 [18]: 4.01 µM (active)
CC50 [19]: 100 µM (active)
AC50 [20]: 6.36 µM (active)
AC50 [21]: 12.2 µM (active)

O=C(CSc1nc2ccc(Cl)cc2[nH]1)c1c[nH]c2ccccc12
IC50 [22]: 39.5 µM (inactive)

O=C(CSc1nc2cc(Cl)ccc2[nH]1)c1c[nH]c2ccccc12
IC50 [23]: 83.3 µM (inactive)

O=C(NNC(=S)NC(=O)c1cccc([N+](=O)[O-])c1)c1ccc(O)cc1
IC50 (Albumin): > 94 µM (inactive)

O=C(NCC1CCCO1)c1ccc(NC(=O)c2cccc([N+](=O)[O-])c2)cc1 (stereo not given)
IC50 [1]: 3.99 µM (active)
IC50 [2]: 35.9 µM (inactive)
IC50 (Steroidogenic factor 1): 1.32 µM (active)
